Results as given in the CheMixHub viscosity set.

Assay: xn = mol fraction of the nth substance listed

CN1CCC[C@H]1c1cccnc1 + ClC(Cl)C(Cl)Cl
viscosity [mPa·s], 101.33 kPa
Details	x1 = 0.1547	x1 = 0.2569	x1 = 0.3706	x1 = 0.5146	x1 = 0.5995	x1 = 0.6384	x1 = 0.6803	x1 = 0.7501	x1 = 0.868
298.15 K	2.625	3.353	4.121	4.912	5.253	5.353	5.203	5.031	4.545
323.15 K	1.541	1.905	2.184	2.425	2.53	2.632	2.568	2.497	2.342

CN1CCC[C@H]1c1cccnc1 + ClC(Cl)Cl
viscosity [mPa·s], 101.33 kPa
Details	298.15 K	308.15 K	323.15 K
x1 = 0.1107	0.8162	0.7343	0.6076
x1 = 0.1213	0.8741	0.7473	0.6289
x1 = 0.2022	1.135	0.9654	0.8066
x1 = 0.219	1.197	0.9796	0.8071
x1 = 0.2456	1.275	1.082	0.8894
x1 = 0.2972	1.463	1.206	0.958
x1 = 0.3738	1.8	1.473	1.138
x1 = 0.4026	1.921	1.588	1.198
x1 = 0.4882	2.296	1.818	1.361
x1 = 0.5032	2.395	1.9	1.402
x1 = 0.6129	2.846	2.267	1.651
x1 = 0.623	2.964	2.301	1.663
x1 = 0.6823	3.103	2.409	1.756
x1 = 0.6974	3.196	2.471	1.768
x1 = 0.8059	3.563	2.756	1.912
x1 = 0.8931	3.704	2.959	2
x1 = 0.8962	3.741	2.974	2.002

CC(C)C#N + Clc1ccccc1
viscosity [mPa·s], 101 kPa
Details	x2 = 0.1028	x2 = 0.2026	x2 = 0.3007	x2 = 0.4004	x2 = 0.5004	x2 = 0.6004	x2 = 0.6996	x2 = 0.7998	x2 = 0.8999
303.15 K	0.487	0.513	0.537	0.562	0.585	0.61	0.636	0.663	0.689
308.15 K	0.456	0.48	0.503	0.525	0.545	0.569	0.592	0.616	0.643

CC(C)C#N + Clc1ccccc1Cl
viscosity [mPa·s], 101 kPa
Details	x2 = 0.1007	x2 = 0.2025	x2 = 0.2999	x2 = 0.4004	x2 = 0.4997	x2 = 0.599	x2 = 0.6994	x2 = 0.7997	x2 = 0.8989
303.15 K	0.526	0.594	0.659	0.73	0.793	0.874	0.947	1.03	1.118
308.15 K	0.489	0.551	0.608	0.667	0.732	0.798	0.87	0.945	1.02

OCCCl + Nc1cccc(Cl)c1
100 kPa
Details	viscosity [mPa·s]
303.15 K, x2 = 0.7938	3.925
308.15 K, x2 = 0.3622	2.855
313.15 K, x2 = 0.0844	1.995
313.15 K, x2 = 0.5814	2.795

C=CCO + O
Details	viscosity [mPa·s]
298.15 K, 101.33 kPa, x1 = 0.04829	1.349
298.15 K, 101.33 kPa, x1 = 0.09818	1.682
298.15 K, 101.33 kPa, x1 = 0.1362	1.789
298.15 K, 101.33 kPa, x1 = 0.146	1.846
298.15 K, 101.33 kPa, x1 = 0.2038	1.888
298.15 K, 101.33 kPa, x1 = 0.2149	1.895
298.15 K, 101.33 kPa, x1 = 0.2178	1.887
298.15 K, 101.33 kPa, x1 = 0.2213	1.892
298.15 K, 101.33 kPa, x1 = 0.2883	1.891
298.15 K, 101.33 kPa, x1 = 0.3655	1.796
298.15 K, 101.33 kPa, x1 = 0.4148	1.75
298.15 K, 101.33 kPa, x1 = 0.6057	1.537
303.15 K, 101 kPa, x1 = 0.1	1.415
303.15 K, 101 kPa, x1 = 0.199	1.604
303.15 K, 101 kPa, x1 = 0.299	1.603
303.15 K, 101 kPa, x1 = 0.4	1.531
303.15 K, 101 kPa, x1 = 0.5	1.44
303.15 K, 101 kPa, x1 = 0.6	1.369
303.15 K, 101 kPa, x1 = 0.696	1.297
303.15 K, 101 kPa, x1 = 0.795	1.233
303.15 K, 101 kPa, x1 = 0.896	1.176
313.15 K, 101 kPa, x1 = 0.1	1.082
313.15 K, 101 kPa, x1 = 0.199	1.23
313.15 K, 101 kPa, x1 = 0.299	1.238
313.15 K, 101 kPa, x1 = 0.4	1.202
313.15 K, 101 kPa, x1 = 0.5	1.143
313.15 K, 101 kPa, x1 = 0.6	1.096
313.15 K, 101 kPa, x1 = 0.696	1.045
313.15 K, 101 kPa, x1 = 0.795	1.002
313.15 K, 101 kPa, x1 = 0.896	0.9616
318.15 K, 101 kPa, x1 = 0.1	0.9613
318.15 K, 101 kPa, x1 = 0.199	1.09
318.15 K, 101 kPa, x1 = 0.299	1.103
318.15 K, 101 kPa, x1 = 0.4	1.072
318.15 K, 101 kPa, x1 = 0.5	1.031
318.15 K, 101 kPa, x1 = 0.6	0.991
318.15 K, 101 kPa, x1 = 0.696	0.9463
318.15 K, 101 kPa, x1 = 0.795	0.9099
318.15 K, 101 kPa, x1 = 0.896	0.876
323.15 K, 101 kPa, x1 = 0.1	0.8601
323.15 K, 101 kPa, x1 = 0.199	0.9754
323.15 K, 101 kPa, x1 = 0.299	0.9907
323.15 K, 101 kPa, x1 = 0.4	0.9622
323.15 K, 101 kPa, x1 = 0.5	0.9263
323.15 K, 101 kPa, x1 = 0.6	0.8973
323.15 K, 101 kPa, x1 = 0.696	0.8586
323.15 K, 101 kPa, x1 = 0.795	0.8284
323.15 K, 101 kPa, x1 = 0.896	0.8008

CC(=O)[O-].[Na+] + O
viscosity [mPa·s], 101.33 kPa
Details	293.15 K	298.15 K	303.15 K
x1 = 0.0046	1.082	0.965	0.863
x1 = 0.0112	1.217	1.083	0.968
x1 = 0.0172	1.355	1.205	1.075
x1 = 0.0215	1.466	1.302	1.16
x1 = 0.0287	1.673	1.484	1.32
x1 = 0.0343	1.857	1.645	1.462
x1 = 0.0402	2.076	1.836	1.629
x1 = 0.0467	2.35	2.076	1.839
x1 = 0.0505	2.529	2.232	1.975
x1 = 0.0572	2.883	2.54	2.244
x1 = 0.0652	3.379	2.97	2.619

CN1CCC[C@H]1c1cccnc1 + O
viscosity [mPa·s]
Details	298.15 K	303.15 K	308.15 K	318.05 K	323.15 K
100 kPa, x1 = 0.006	–	1.33	–	1.15	–
100 kPa, x1 = 0.1	–	7.1	–	4.1	–
100 kPa, x1 = 0.3	–	14.2	–	6.2	–
100 kPa, x1 = 0.4	–	17.3	–	5.8	–
100 kPa, x1 = 0.5	–	11.1	–	5	–
100 kPa, x1 = 0.6	–	5.8	–	3.1	–
100 kPa, x1 = 0.7	–	4.5	–	2.8	–
100 kPa, x1 = 0.8	–	4.8	–	3.5	–
100 kPa, x1 = 0.9	–	2	–	1.3	–
101 kPa, x1 = 0.1202	11.12	–	6.629	–	3.436
101 kPa, x1 = 0.1977	19.96	–	10.4	–	4.771
101 kPa, x1 = 0.2424	23.83	–	12.08	–	5.382
101 kPa, x1 = 0.2592	25.19	–	12.24	–	5.493
101 kPa, x1 = 0.2808	24.43	–	12.19	–	5.403
101 kPa, x1 = 0.3047	23.6	–	12.1	–	5.304
101 kPa, x1 = 0.3692	21.03	–	11.15	–	5.146
101 kPa, x1 = 0.4852	15.84	–	8.817	–	4.426
101 kPa, x1 = 0.6052	11.43	–	6.572	–	3.624
101 kPa, x1 = 0.7285	7.954	–	4.832	–	2.834
101 kPa, x1 = 0.8635	5.014	–	3.811	–	2.486

O=S(=O)([O-])[O-].[NH4+].[NH4+] + O
viscosity [mPa·s], 101 kPa
Details	298.15 K	308.15 K	318.15 K
x1 = 0.008901	0.9796	0.8523	0.7339
x1 = 0.01765	1.709	1.427	1.231

O=c1cc[nH]c(=O)[nH]1 + O
viscosity [mPa·s]
Details	293.15 K	298.15 K	303.15 K	308.15 K	318.15 K
101 kPa, x1 = 9e-05	–	0.879	–	0.7172	0.5784
101 kPa, x1 = 0.00018	–	0.9132	–	0.7313	0.5871
101 kPa, x1 = 0.00027	–	0.9292	–	0.7541	0.6092
101 kPa, x1 = 0.00036	–	0.941	–	0.7821	0.6272
101.3 kPa, x1 = 0.000113	1.004	–	0.801	–	–
101.3 kPa, x1 = 0.000164	–	0.892	–	0.721	–
101.3 kPa, x1 = 0.000177	1.005	0.894	0.802	–	–
101.3 kPa, x1 = 0.0002602	–	0.894	–	–	0.599
101.3 kPa, x1 = 0.0002747	1.006	–	0.803	–	–
101.3 kPa, x1 = 0.0003447	1.007	0.896	0.804	–	–
101.3 kPa, x1 = 0.0004315	–	0.896	–	–	0.601
101.3 kPa, x1 = 0.0004415	–	0.896	–	0.725	0.601
101.3 kPa, x1 = 0.0004586	1.008	0.897	0.805	–	–
101.3 kPa, x1 = 0.0004739	–	0.897	–	0.725	0.601
101.3 kPa, x1 = 0.0005438	1.009	–	0.806	–	–

OCCCO + O
Details	viscosity [mPa·s]
293.15 K, 101.33 kPa, x1 = 0.1597	5.035
298.15 K, 101 kPa, x1 = 0.0743	1.975
298.15 K, 101 kPa, x1 = 0.1661	4.203
298.15 K, 101 kPa, x1 = 0.2338	6.223
298.15 K, 101 kPa, x1 = 0.3007	8.667
298.15 K, 101 kPa, x1 = 0.3965	12.43
298.15 K, 101 kPa, x1 = 0.4726	15.67
298.15 K, 101 kPa, x1 = 0.5649	19.7
298.15 K, 101 kPa, x1 = 0.6713	24.72
298.15 K, 101 kPa, x1 = 0.7492	28.53
298.15 K, 101 kPa, x1 = 0.8137	32
298.15 K, 101 kPa, x1 = 0.9572	39.94
298.15 K, 101.3 kPa, x2 = 0.0622	37.15
308.15 K, 101 kPa, x1 = 0.095	1.65
308.15 K, 101 kPa, x1 = 0.1968	4.202
308.15 K, 101 kPa, x1 = 0.3019	6.937
308.15 K, 101 kPa, x1 = 0.4108	9.362
308.15 K, 101 kPa, x1 = 0.495	11.66
308.15 K, 101 kPa, x1 = 0.6009	14.63
308.15 K, 101 kPa, x1 = 0.692	17.5
308.15 K, 101 kPa, x1 = 0.7938	20.41
308.15 K, 101 kPa, x1 = 0.9232	24.43
313.15 K, 101.33 kPa, x1 = 0.5449	11.05
323.15 K, 101.33 kPa, x1 = 0.7523	11.15

[I-].[Rb+] + O
310.15 K, 101 kPa
Details	viscosity [mPa·s]
x1 = 0.000182	0.6811
x1 = 0.000907	0.69
x1 = 0.001816	0.7025
x1 = 0.002695	0.7138
x1 = 0.003679	0.7268
x1 = 0.005197	0.7469
x1 = 0.005988	0.7573

CCOC(=O)CCC(=O)OCC + O=C1CCCO1
Details	viscosity [mPa·s]
298.15 K, 101 kPa, x2 = 0.95	1.745

NC=O + OCC(O)CO
viscosity [mPa·s], 101 kPa
Details	x2 = 0.057	x2 = 0.12	x2 = 0.189	x2 = 0.266	x2 = 0.352	x2 = 0.449	x2 = 0.559	x2 = 0.685	x2 = 0.83
303.15 K	4.08	5.13	7.21	11.1	15.9	27.5	53.1	106.8	214.3
318.15 K	2.98	3.52	4.65	6.53	8.88	14.1	23.9	42.7	80.6
